# Measured values from patent publication US20220089602A1, “COMPOUNDS THAT INDUCE FERROPTIC CELL DEATH” (The Board of Trustees of the University of Illinois, priority 2019, published 2022).
# Key:
# E. coli = experiment: Antibacterial activity (MIC); type: cell-based; settings: Escherichia coli; gram-negative (E. coli)
# A549 cells = experiment: Speed of cell death, AV/PI flow cytometry; type: cell-based; settings: each at 10 μM, A549 (K-RAS mutant)
# Protocol: (§1) ES-2, HCT 116, Mia PaCa-2, A549, and 4T1 cells (1×10^5 cells/mL) were plated overnight in 12 well plates, prior to addition of compounds. For protection studies, samples were pre-treated with each protecting agent such as 25 μM Q-VD-OPh, 250 μM trolox, 2 μM ferrostatin-1, 5 mM NAC-1 (neutralized pH), or 100 μM deferoxamine (DFO) for two hours or 1 hr (NAC-1) before compound addition. Cells were incubated for the appropriate times and harvested for flow cytometry analysis. Cell pellets were resuspended in binding buffer (10 mM HEPES, pH 7.4, 140 mM NaCl, 2.5 mM CaCl2) containing 2 μg/mL propidium iodide and 5 μL/mL Annexin V-FITC conjugate antibody and analyzed for cell viability after gating for forward and side scattering. Ten thousand events were collected per sample in BD LSR II Flow Cytometer (BD Bioscience) and FCS express V6, De Novo software was used to perform experimental analysis.
# ES-2 cells = experiment: Speed of cell death, AV/PI flow cytometry; type: cell-based; settings: 10 μM, ES-2, AV/PI
# Protocol: as §1
# HCT 116 cells = experiment: Speed of cell death, AV/PI flow cytometry; type: cell-based
# Protocol: as §1
# Mia PaCa-2 cells = experiment: Speed of cell death, AV/PI flow cytometry; type: cell-based; settings: 10 μM, Mia PaCa-2, AV/PI
# Protocol: as §1
# [1] = test system: 4T1 triple negative breast cancer cells; experiment: 4T1 subcutaneous tumor model, immunocompromised mice; type: in vivo; settings: 50 mg/kg i.p., twice a week, five doses, SCID; listed as ferroptocide
# Protocol: The protocol was approved by the IACUC at the University of Illinois at Urbana-Champaign (Protocol Number: 17192). 9-week old female Balb/C or SCID mice (Charles River) were lightly sedated with i.p. xylazine/ketamine/saline solution. Following sedation, 4T1 murine breast cancer cells suspended in chilled HBSS (100 μL of 4×10^6 cells/mL) were injected subcutaneously into the right flank of shaved and sedated mice using an insulin syringe. On day 8 after inoculation, mice were randomized with 7 mice per group for vehicle or ferroptocide treatment. Vehicle (PEG400) or ferroptocide (50 mg/kg) was administered intraperitoneally as a PEG400 solution twice a week for 5 times. Tumor measurements were performed every 3 or 4 days using a caliper and tumor volume was calculated using the equation (0.5×l×w^2). On day 23 after the 4T1 cells inoculation, mice were sacrificed. Tumors were then surgically removed, and their mass was measured.
smiles,measurement,setting,value
"C[C@@H]1CC[C@@]23C[C@H](O)C(=O)[C@@]2(O)[C@]1(C)[C@H](OC(=O)CCl)C[C@@H](C1=CCn2c(=O)n(-c4ccccc4)c(=O)n2C1)[C@@H]3C [Compound P18, ferroptocide]",MIC,E. coli,> 64 µg/mL
same,cell death versus erastin and RSL3,A549 cells,inducing more quantitative cell death than the other tool compounds
same,time to 50% cell death,ES-2 cells,1 h
same,time to 50% cell death,"HCT 116 cells; 10 μM, HCT 116, AV/PI",7 h
same,cell death versus erastin and RSL3,"HCT 116 cells; each at 10 μM, HCT 116 (K-RAS mutant)",inducing more quantitative cell death than the other tool compounds
same,time to 50% cell death,Mia PaCa-2 cells; listed as Ferroptocide,2 h
same,time to 50% cell death,Mia PaCa-2 cells; listed as ferroptocide,1.5 h
same,effect on subcutaneous 4T1 tumor growth (in words),[1],no effect
